Consider one substance from patent publication EP0636146B1, “TACHYKININ ANTAGONIST TRICYCLIC COMPOUNDS, PREPARATION OF SAME AND PHARMACEUTICAL COMPOSITIONS CONTAINING SUCH COMPOUNDS” (A. MENARINI INDUSTRIE FARMACEUTICHE RIUNITE S.R.L., priority 1992, dated 1997).

In test [1] the test system is P substance receptor (receptor NK-1). The experiment in a line: inhibition of SP methyl ester-induced contraction of isolated guinea pig ileum. Format: cell-based. Further details: dose or concentration left out as unconfirmed. The note with it: SP methyl ester 10 nm. As to the method: The capacity of the products described herein to interact with the P substance receptor (receptor NK-1) was assessed through an in vitro test, where the biological response produced by tachyquinines and correlated peptides was exclusively determined by the P substance receptor. The test preparation consisted of isolated guinea pig ileum affected by a dose-dependent contraction brought about by tachyquinines (Lee et al., Schmied. Arch. Pharmacol., 318, 281-287, 1982). The determination of the activity of the products as per the present invention in the test preparation was based on the use of an SP methyl ester concentration (10 nm) causing a response equal to 45% of max. response (S. Dion et al., Life Sci., 41, 2269-2278, 1987). The products considered herein were added to the preparation in growing concentrations. Their activity was assessed as inhibition of response to SP with satisfactory results.

For test [2], the system named is neuroquinine A receptor (receptor NK-2). Briefly: inhibition of NKA-induced contraction of isolated rabbit pulmonary artery. The test is classed as cell-based. The note with it: NKA 3 nM. The procedure:
The capacity of the products described in the present invention to interact with the neuroquinine A receptor as agonists or antagonists was assessed using a preparation characterized by the fact that the biological response produced by tachyquinines and correlated peptides was exclusively determined by the neuroquinine A receptor (receptor NK-2). The said preparation consisted of isolated rabbit pulmonary artery affected by a dose-dependent contraction brought about by tachyquinines (Rovero et al., Neuropeptides, 13, 263-270, 1989). The determination of the peptide activity in the test preparation was based on the use of an NKA concentration (3 nM) causing a response equal to 45% of max. response. The peptides considered herein were added to the preparation in growing concentrations. Their activity was assessed as inhibition of response to NKA.

cyclo(MDWFL) [compound 1]: the “inhibition of response to SP methyl ester” value in test [1] amounted to 100%. The “inhibition of response to neuroquinine A” value in test [2] turned out to be 100%.
